This is an account of results in patent publication US6630491B1, “Use of nicotinic analogs for treatment of degenerative diseases of the nervous system” (priority 1991, dated 2003).

Each structure is given as a SMILES string. Counter-ions that a name gives are not always drawn.

For data set [1], the system named is aged rats. The experiment in a line: 17-arm radial maze testing of aged rats. The note with it: 2 mg/kg 15 minutes prior to each daily trial, FIG. 4. In kind it is in vivo, rat. From the text: The 17 arm radial maze requires animals to remember a baited set of 8 arms out of the 17 total arms. At the start of each daily trial, rats are placed in the center of the maze and permitted to choose among the 17 arms until all 8 food rewards are taken or until fifteen minutes elapse. Those animals that reach a performance criteria of 17 arm choices on two consecutive days of testing during the first 14 days of testing are continued in testing for an additional 30 days. For such animals, only data collected after day 14 are used in the statistical analyses. Statistical analyses are done on 3 sets of data. The first is a measure of general learning: the percent correct choices (entries into baited arms) over the first 8 arm choices. The second is a measure of short term memory (working memory) calculated from the first 12 arm choices: the percent of choices into baited arms (containing food) over the total number of choices within the baited set. Working memory, an interatrial measure of short term memory, measured the rat's ability to remember which of the arms in the baited set were previously entered and the food reward taken. The third set of data measured long-term or reference memory and also was calculated from the first 12 arm choices. Reference memory, defined as an inter-trial measure, is the percent correct choices in the baited set over the total number of arm choices. […]

A further data set has as its system brain tissue slices. The experiment in a line: Aspartate release from brain tissue slices. The note with it: for aspartate release, dose relation: except at one low concentration, FIGS. 6 and 7. From the text: (§1) These different types of cerebral cortical transmitter systems have been tested. The first is the cholinergic; the procedures used to load cholinergic neurons or slices with newly synthesized [3H]ACh were described previously (Meyer, et al., 1987). The second is aspartate, an excitatory amino acid which, like glutamate, is associated with memory (long term potentiation) and neuropathology (e.g., stroke). The third type of neurotransmitter is GABA, which is the predominant transmitter in the cerebral cortex and is therefore very likely to receive cholinergic innervation.
(§2) In order to measure aspartate or GABA release, tissues were incubated with 100 nM [3H] aspartate or 250 nM [3h] GABA in Krebs Ringer buffer at 37° C. for 30 minutes, then washed them in ice cold buffer. All release-incubations were at 37° C. for 15 minutes in the presence or absence of 50 mM KCl (depolarization). Radiation accumulation was also measured in slices in order to express the released levels of transmitter as % of total transmitter, since slices were somewhat variable with respect to accumulation of label. K+ induced release of transmitter was determined by subtracting the basal release from that in the presence of the elevated K+, such that only the incremental release was determined.
The fact that nicotine […] without increasing basal release as well as K+ induced release is surprising. One hypothesis is that nicotine stimulates another type of neuron (presumably excitatory) to dis-inhibit the release of aspartate; this dis-inhibition would not be seen except when the aspartate neuron itself was activated by depolarization.

The subject of data set [2] is cerebral cortical synaptosomes. The experiment in a line: Release of newly synthesized [3H]ACh from synaptosomes.
From the text: (§3) Neurotransmitter release from synaptosomes provides a potential marker for receptor-activity at different types of nerve terminals. Neurotransmitter release from intact slices or minces provides a marker for receptor activity at many sites on the neuron. A comparison of the effects of nicotine and other drugs on synaptosomes versus slices provides some idea as to the location of nicotinic receptors on different types of cerebral cortical neurons, as well as their cellular location.
as §1, §2
(§4) Neurotransmitter levels (aspartate, glutamate) and enzyme levels were assayed as described by Arendash, et al., Science, 238:952, 1987. […] ACh from synaptosomes. Also, no effect was seen on the release of [3H] aspartate from isolated terminals.

Data set [3] has as its system Male Sprague Dawley albino rats. Description: Passive avoidance behavior in nucleus basalis lesioned and unlesioned rats. The data set is classed as in vivo, rat. The note with it: for shift (increase) in potency by lesioning: lesioned vs unlesioned animals; for shift (increase) in potency by lesioning / potency in lesioned vs unlesioned animals: passive avoidance; for potency in lesioned vs unlesioned animals: FIGS. 1 and 2; for dose that interfered with training or behavior: after lesioning; for effective dose in passive avoidance behavior: i.p. 5 min before trial and testing. The procedure:
Male Sprague Dawley albino rats were used for all studies and were maintained in departmental animal facilities, using NIH guidelines for care of animals. Where lesioned animals were tested, lesions were induced in anesthetized animals by bilateral infusion of ibotenic acid (5 μg in 1 μl) or phosphate buffered saline (PBS) into the nucleus basalis region.
For passive avoidance behavior, animals received a moderately strong shock (0.8 m Amp) for 1 second after entering a dark room. After 24 hours, the animals were again tested to determine if they could remember to stay out of the dark room. Animals were only allowed 5 minutes to make their choice, when they were removed from the lighted chamber. For testing the effects of drugs in animals that were not lesioned, shocks were only 0.5m Amp in intensity, and the animals were allowed 72 hours until they were tested after training. In all drug-treatment studies, the drugs were injected intraperitoneally in saline diluent 5 minutes before the trial and 5 minutes before the testing period.
The effect of (−)anabaseine on passive avoidance was also determined using unlesioned animals (FIG. 3). In these experiments (−)anabaseine was injected intraperitoneally 5 min. before training and testing in the passive avoidance apparatus. Only animals that trained within 300 sec the first time were used (i.e., those animals that entered the dark compartment and received a mild foot shock).

The test system of data set [4] is isolated terminals (synaptosomes) of cerebral cortex. Description: Release of [3H]aspartate from isolated terminals.
From the text: as §3, §1, §2, §4

Data set [5] deals with aged rats. Description: Lashley III maze testing of aged rats. The data set is classed as in vivo, rat. The conditions noted are these: aged animals, 2 mg/kg before training, first two blocks of tests, FIG. 5. From the text:
The Lashley III maze tests an animal's ability to learn a series of left-right alternation turns. Six alternation errors are possible for any given daily trial; chance performance level is 3 errors per trial. Previous studies have shown that young adult sham operated animals quickly learn to reduce their number of alternation errors to near zero by the end of the test period. By contrast, 23 months old (Aged) sham operated animals made substantially more errors over the 25 days of testing. […] Therefore, both age- and lesion-induced learning deficits were observed. Nonetheless, all groups did improve their performance over time.
Aged animals injected with saline or DMAB-anabaseine were evaluated in the Lashley III maze (FIG. 5). […] This reflected an improvement in another memory-related behavior with this nicotine agonist.

Data set [6] is described as follows: Water solubility (observation during synthesis). In kind it is physicochemical. Here is the method: The lithium enolate of 3nicotinoyl2-piperidone (4.94w) of step 1 was added slowly to a round bottom flask containing 30 mL of concentrated HCl which was chilled in an ice bath and stirred. The enolate was not readily soluble. The reaction mixture was heated at reflux under nitrogen overnight to effect the hydrolysis and decarboxylation. […] The reaction should not be diluted with too much aqueous acid or the product will not crystallize during the work up.

Data set [7] concerns cortical slices. The experiment in a line: [3H]ACh release from cortical slices.
From the text: as §1, §2
This pattern was also observed with [3H]ACh release and [3H]GABA release from cortical slices. Nicotine (100 nM) increased the K+ induced release of ACh but reduced the K+induced GABA release from slices, while anabaseine (1 μM) had no effect on either process. […] Thus, it appears that the ability of nicotinic types of compounds to modulate neurotransmitter release is not mediated through one of the receptors with high affinity for anabaseine, or DMAB-anabaseine.

The subject of data set [8] is vertebrate neuromuscular nicotinic acetylcholine receptors. The note with it: Kem, Amer.Zoologist, 25:99, 1985; cited from earlier work.
Data set [9] relates to cortical slices. The experiment in a line: [3H]GABA release from cortical slices.
From the text: as §1, §2
This pattern was also observed with [3H]ACh release and [3H]GABA release from cortical slices. […]

The mark [10] stands for this setting: even in animals with reduced neocortical cholinergic activity.

vertebrate neuromuscular nicotinic acetylcholine receptors, sequence (P02708 21-457): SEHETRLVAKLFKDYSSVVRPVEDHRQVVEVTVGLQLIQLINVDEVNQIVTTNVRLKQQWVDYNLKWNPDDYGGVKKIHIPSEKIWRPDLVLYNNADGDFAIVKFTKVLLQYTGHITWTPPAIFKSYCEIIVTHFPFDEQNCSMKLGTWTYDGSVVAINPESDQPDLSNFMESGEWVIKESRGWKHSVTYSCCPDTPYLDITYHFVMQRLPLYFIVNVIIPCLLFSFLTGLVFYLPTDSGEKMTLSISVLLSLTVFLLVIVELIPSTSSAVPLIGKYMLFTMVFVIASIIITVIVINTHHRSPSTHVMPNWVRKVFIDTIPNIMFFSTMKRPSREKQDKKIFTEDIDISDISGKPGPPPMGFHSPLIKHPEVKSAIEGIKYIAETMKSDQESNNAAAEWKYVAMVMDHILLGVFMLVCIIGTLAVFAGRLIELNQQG
vertebrate neuromuscular nicotinic acetylcholine receptors, sequence (P11230 24-501 partner): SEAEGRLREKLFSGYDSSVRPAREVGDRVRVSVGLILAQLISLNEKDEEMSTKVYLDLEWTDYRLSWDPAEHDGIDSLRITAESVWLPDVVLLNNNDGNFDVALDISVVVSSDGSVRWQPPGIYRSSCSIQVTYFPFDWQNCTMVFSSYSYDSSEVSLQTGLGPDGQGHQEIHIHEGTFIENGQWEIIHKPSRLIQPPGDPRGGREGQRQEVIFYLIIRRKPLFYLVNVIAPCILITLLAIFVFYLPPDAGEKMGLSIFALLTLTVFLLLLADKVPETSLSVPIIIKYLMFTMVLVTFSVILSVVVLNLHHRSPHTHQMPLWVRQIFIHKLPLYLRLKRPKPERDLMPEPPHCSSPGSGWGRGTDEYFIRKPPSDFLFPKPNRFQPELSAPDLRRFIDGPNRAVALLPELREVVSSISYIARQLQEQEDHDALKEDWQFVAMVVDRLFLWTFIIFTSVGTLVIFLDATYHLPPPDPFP
vertebrate neuromuscular nicotinic acetylcholine receptors, sequence (Q07001 22-517 partner): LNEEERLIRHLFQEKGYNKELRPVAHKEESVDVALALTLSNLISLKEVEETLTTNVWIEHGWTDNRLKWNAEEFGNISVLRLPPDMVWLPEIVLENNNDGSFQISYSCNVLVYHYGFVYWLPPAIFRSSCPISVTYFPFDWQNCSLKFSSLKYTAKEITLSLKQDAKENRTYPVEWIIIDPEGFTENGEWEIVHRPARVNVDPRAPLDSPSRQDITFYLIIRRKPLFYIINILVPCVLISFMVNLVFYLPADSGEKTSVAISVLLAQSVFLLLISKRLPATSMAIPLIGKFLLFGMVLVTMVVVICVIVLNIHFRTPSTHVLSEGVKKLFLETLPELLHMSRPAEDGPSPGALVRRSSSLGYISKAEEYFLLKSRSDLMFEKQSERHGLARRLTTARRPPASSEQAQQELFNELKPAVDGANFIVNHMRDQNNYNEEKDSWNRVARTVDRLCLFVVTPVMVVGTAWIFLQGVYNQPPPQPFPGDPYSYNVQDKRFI

Take `CN(C)c1ccc(C=C2CCCN=C2c2cccnc2)cc1` [DMAB-anabaseine, 3-[p-(dimethylamino)benzylidene]-3,4,5,6-tetrahydro-2,3′-bipyridine]: in the data set on aged rats [1], the “measure of long term memory” value was “improved” and the short term memory entry is “without affecting”. Besides, the “aspartate release, dose relation” value in the data set on brain tissue slices was “did not increase aspartate release in a dose-related manner”. Besides, in [2], the “50 mM KCl induced release of newly synthesized [3H]ACh” value (from here on “50 mM KCl induced release”) is “no effect” and the “basal release of newly synthesized [3H]ACh” value (“basal release” below) was “no effect”. For the same compound, in data set [3] (setting [10]), the “effect on passive avoidance (memory-related) behavior” value (shortened to “effect on passive avoidance”) was “can improve this type of memory-related behavior”. Further, in data set [3], the “shift (increase) in potency by lesioning” value is given as 2-2.5 fold and the “potency in lesioned vs unlesioned animals” value is on record as “more potent in lesioned then in unlesioned animals”. In data set [4], the “release of [3H]aspartate” value is recorded as “no effect”. In the data set with aged rats [5], the “number of errors in the maze” value is “reduced the number of errors”.
With `c1cncc(C2=NCCCC2)c1` [anabaseine dihydrochloride], the water solubility entry in data set [6] is “very water soluble”.
For the compound `c1cncc(C2=NCCCC2)c1` [anabaseine, 2-(3-pyridyl)-3,4,5,6-tetrahydropyridine], in the data set with cortical slices [7] (1 μM), the “K+ induced release of ACh” value is reported as “no effect”. In data set [8], the “activation of vertebrate neuromuscular nicotinic acetylcholine receptors” value was “potent activator”. Besides, the “aspartate release, dose relation” value in the data set on brain tissue slices is “did not increase aspartate release in a dose-related manner”. Moreover, in data set [2], the “50 mM KCl induced release” value was “no effect” and the “basal release” value is recorded as “no effect”. Also, in data set [3], the “dose that interfered with training or behavior” value was determined as 0.2 mg/kg, the “shift (increase) in potency by lesioning” value is ~2.5 fold and the “potency in lesioned vs unlesioned animals” value is “more potent in lesioned then in unlesioned animals”. In addition, the “effect on passive avoidance” value in [3] (setting [10]) was “can improve this type of memory-related behavior”. Also, the “effect on passive avoidance” value in data set [3] (unlesioned animals, i.p. 5 min before training and testing (FIG. 3)) was “can improve this type of memory-related behavior”. Further, the “K+ induced GABA release” value with cortical slices [9] (1 μM) is reported as “no effect”. Besides, the “release of [3H]aspartate” value in data set [4] is listed as “no effect”.
For the compound `CN1CCCC1c1cccnc1` (stereo not shown) [nicotine, reference compound], in the data set with cortical slices [7], the “basal ACh release” value is recorded as “increased”. Moreover, the “K+ induced release of ACh” value in the data set on cortical slices [7] (100 nM) is “increased”. In the data set with brain tissue slices (100 nM, FIG. 6), the “K+ induced release of aspartate” value is recorded as “increased” and the “spontaneous release of transmitter (aspartate)” value is “without affecting”. Moreover, in data set [2], the “50 mM KCl induced release” value is reported as “no effect” and the “basal release” value is “no effect”. In [3], the “dose that interfered with training or behavior” value worked out at 0.2 mg/kg. Moreover, in [3] (nucleus basalis lesioned animals), the “effective dose in passive avoidance behavior” value is 0.02 mg/kg. Further, the “effective dose in passive avoidance behavior” value in [3] (unlesioned animals) is recorded as 0.05 mg/kg. Further, the “K+ induced GABA release” value with cortical slices [9] (100 nM) is on record as “reduced”. In addition, the “release of [3H]aspartate” value in [4] is listed as “no effect”.
